Test results published in ChEMBL document CHEMBL5715260, “Selectivity Literature for EUbOPEN Chemogenomic Library” (2024).
Blank lines part the entries; values can stand above or below the compound they belong to.

Key:
Parameters in all cases: recommended concentration 1 uM
[1] = target: T1, Nuclear receptor subfamily 2 group C member 1 (Homo sapiens) (UniProt P13056); test: Selectivity interaction (Reporter gene assay) EUB0001142a NR2C1
T1 sequence (whole entry): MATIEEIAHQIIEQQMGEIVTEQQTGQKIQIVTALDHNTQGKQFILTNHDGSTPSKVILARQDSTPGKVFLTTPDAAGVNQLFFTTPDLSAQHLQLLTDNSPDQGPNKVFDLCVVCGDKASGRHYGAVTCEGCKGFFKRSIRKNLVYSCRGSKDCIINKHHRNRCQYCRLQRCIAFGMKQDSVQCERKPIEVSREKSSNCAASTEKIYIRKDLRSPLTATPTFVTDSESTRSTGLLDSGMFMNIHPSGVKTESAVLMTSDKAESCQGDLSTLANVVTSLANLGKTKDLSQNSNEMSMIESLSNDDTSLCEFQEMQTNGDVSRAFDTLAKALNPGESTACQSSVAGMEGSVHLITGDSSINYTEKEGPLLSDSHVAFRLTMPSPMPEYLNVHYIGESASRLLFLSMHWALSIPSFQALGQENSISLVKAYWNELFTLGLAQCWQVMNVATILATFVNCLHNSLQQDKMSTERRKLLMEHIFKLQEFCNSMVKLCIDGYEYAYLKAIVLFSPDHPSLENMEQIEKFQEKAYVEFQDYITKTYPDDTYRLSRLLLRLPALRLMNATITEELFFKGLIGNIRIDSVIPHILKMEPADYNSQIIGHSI

[2] = target: Nuclear receptor subfamily 4immunitygroup A member 1 (Homo sapiens) (UniProt P22736); test: Selectivity interaction (Reporter gene assay) EUB0001142a NR4A1
Nuclear receptor subfamily 4immunitygroup A member 1 (Homo sapiens), sequence (P22736 whole entry): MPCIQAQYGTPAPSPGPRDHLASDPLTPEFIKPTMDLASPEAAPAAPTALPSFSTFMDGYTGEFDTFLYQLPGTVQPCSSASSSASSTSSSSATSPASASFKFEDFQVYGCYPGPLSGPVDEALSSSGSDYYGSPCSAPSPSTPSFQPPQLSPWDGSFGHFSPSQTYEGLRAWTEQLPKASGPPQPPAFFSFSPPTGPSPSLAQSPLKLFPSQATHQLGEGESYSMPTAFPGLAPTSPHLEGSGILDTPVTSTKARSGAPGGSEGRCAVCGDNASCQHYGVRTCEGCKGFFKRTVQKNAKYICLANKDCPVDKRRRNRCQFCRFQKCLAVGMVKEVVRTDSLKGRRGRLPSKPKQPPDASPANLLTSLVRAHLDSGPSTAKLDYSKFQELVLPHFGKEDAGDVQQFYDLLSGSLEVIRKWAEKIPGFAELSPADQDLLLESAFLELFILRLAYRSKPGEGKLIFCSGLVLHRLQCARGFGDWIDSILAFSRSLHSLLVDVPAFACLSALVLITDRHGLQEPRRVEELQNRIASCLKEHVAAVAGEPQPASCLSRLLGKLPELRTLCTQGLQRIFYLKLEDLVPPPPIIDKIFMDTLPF

[3] = target: Nuclear receptor subfamily 2 group E member 1 (Homo sapiens) (UniProt Q9Y466); test: Selectivity interaction (Reporter gene assay) EUB0001142a NR2E1
Nuclear receptor subfamily 2 group E member 1 (Homo sapiens), sequence (Q9Y466 whole entry): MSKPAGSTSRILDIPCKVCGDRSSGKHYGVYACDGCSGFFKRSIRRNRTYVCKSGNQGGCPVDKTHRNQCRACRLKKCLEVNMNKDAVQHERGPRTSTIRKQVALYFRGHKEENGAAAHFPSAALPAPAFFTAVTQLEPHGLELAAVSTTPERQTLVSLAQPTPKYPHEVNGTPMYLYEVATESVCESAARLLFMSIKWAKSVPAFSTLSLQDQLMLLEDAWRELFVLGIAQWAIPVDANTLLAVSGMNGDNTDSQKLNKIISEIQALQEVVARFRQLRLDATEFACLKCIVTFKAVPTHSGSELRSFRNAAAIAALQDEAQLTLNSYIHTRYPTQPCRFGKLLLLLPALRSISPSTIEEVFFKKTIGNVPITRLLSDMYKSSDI

[4] = target: Steroidogenic factor 1 (Homo sapiens) (UniProt Q13285); test: Selectivity interaction (Reporter gene assay) EUB0001142a NR5A1
Steroidogenic factor 1 (Homo sapiens), sequence (Q13285 whole entry): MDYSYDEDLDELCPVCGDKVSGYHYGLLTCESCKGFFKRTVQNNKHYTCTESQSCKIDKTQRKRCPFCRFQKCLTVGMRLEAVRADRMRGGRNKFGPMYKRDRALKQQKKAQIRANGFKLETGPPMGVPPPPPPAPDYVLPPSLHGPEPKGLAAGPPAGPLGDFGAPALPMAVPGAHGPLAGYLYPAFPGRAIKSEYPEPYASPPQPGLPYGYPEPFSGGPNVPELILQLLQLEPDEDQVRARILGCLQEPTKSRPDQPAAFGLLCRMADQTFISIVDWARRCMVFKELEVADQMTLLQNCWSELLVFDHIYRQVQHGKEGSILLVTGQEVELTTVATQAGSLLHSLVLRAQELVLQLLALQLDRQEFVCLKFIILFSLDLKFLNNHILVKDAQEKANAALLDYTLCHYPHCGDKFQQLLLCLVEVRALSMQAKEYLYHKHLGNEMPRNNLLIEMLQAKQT

[5] = target: T2, Hepatocyte nuclear factor 4-alpha (Homo sapiens) (UniProt P41235); test: Selectivity interaction (Reporter gene assay) EUB0001142a HNF4A
T2 sequence (whole entry): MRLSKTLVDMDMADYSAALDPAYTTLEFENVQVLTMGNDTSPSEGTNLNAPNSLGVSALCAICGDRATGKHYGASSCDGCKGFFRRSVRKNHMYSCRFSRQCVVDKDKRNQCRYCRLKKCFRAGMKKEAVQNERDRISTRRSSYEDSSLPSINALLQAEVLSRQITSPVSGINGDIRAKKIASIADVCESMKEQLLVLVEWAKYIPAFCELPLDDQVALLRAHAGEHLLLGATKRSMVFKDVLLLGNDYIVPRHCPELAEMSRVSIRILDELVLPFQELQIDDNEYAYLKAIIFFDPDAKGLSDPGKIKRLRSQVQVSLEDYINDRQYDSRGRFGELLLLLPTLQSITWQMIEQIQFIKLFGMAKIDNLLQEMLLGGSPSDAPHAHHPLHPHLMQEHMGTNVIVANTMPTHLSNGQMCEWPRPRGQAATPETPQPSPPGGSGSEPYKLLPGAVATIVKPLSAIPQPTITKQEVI

[6] = target: T3, Alpha trans-inducing protein (Human alphaherpesvirus 1) (UniProt A0A5J6DW59); test: Selectivity interaction (Reporter gene assay) EUB0001142a UL48
T3 sequence (A0A5J6DW59 as listed by the source): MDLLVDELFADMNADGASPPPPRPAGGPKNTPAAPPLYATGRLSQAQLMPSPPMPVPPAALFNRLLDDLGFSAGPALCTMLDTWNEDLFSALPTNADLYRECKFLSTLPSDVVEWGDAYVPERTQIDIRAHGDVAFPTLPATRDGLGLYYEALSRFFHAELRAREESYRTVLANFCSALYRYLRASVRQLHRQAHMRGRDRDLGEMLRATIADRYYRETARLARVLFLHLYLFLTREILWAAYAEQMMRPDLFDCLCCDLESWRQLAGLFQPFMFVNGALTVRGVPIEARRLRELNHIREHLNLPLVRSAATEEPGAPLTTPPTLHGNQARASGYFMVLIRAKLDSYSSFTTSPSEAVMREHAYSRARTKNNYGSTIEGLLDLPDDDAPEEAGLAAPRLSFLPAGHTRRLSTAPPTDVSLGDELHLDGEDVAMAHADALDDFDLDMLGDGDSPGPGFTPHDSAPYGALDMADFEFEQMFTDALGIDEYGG

[7] = target: Steroidogenic factor 1 (Homo sapiens) (UniProt Q13285); test: Selectivity interaction (Reporter gene assay) EUB0001140a NR5A1
[8] = target: T1, Nuclear receptor subfamily 2 group C member 1 (Homo sapiens); test: Selectivity interaction (Reporter gene assay) EUB0001140a NR2C1
[9] = target: T4, Retinoic acid receptor RXR-alpha (Homo sapiens) (UniProt P19793); test: Selectivity interaction (Reporter gene assay) EUB0001140a RXRA
T4 sequence (whole entry): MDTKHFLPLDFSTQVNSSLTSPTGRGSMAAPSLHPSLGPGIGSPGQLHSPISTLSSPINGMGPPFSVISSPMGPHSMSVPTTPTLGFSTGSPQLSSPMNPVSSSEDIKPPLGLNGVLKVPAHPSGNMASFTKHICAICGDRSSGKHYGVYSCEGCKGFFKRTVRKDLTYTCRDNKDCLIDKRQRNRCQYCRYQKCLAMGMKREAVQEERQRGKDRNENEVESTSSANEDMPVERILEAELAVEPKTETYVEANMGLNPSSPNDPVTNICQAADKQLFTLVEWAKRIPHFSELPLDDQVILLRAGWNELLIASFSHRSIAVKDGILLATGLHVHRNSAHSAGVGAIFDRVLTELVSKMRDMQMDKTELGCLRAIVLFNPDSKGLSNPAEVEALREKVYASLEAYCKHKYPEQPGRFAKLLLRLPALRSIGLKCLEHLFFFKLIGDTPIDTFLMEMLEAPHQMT

[10] = target: Nuclear receptor subfamily 4immunitygroup A member 1 (Homo sapiens) (UniProt P22736); test: Selectivity interaction (Reporter gene assay) EUB0001140a NR4A1
[11] = target: T3, Alpha trans-inducing protein (Human alphaherpesvirus 1); test: Selectivity interaction (Reporter gene assay) EUB0001140a UL48
[12] = target: Peroxisome proliferator-activated receptor delta (Homo sapiens) (UniProt Q03181); test: Selectivity interaction (Reporter gene assay) EUB0001140a PPARD; settings: screened at recom. conc., Selectivity number of off-targets 1.0, Selectivity number of targets 19.0, Source Knowledge inhouse
Peroxisome proliferator-activated receptor delta (Homo sapiens), sequence (Q03181 whole entry): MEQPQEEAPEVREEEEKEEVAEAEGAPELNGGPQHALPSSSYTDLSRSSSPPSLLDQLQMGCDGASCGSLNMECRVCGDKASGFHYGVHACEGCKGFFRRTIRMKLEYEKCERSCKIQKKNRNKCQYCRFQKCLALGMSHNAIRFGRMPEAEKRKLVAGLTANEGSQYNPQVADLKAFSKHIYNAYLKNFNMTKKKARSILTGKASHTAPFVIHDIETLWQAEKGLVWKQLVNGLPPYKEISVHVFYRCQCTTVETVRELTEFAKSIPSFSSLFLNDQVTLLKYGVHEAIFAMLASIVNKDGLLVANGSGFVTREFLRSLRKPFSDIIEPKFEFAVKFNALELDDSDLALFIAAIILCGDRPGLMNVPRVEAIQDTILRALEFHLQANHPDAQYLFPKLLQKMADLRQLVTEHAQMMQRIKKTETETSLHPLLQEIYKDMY

[13] = target: Nuclear receptor subfamily 2 group E member 1 (Homo sapiens) (UniProt Q9Y466); test: Selectivity interaction (Reporter gene assay) EUB0001140a NR2E1
[14] = target: T2, Hepatocyte nuclear factor 4-alpha (Homo sapiens); test: Selectivity interaction (Reporter gene assay) EUB0001140a HNF4A
[15] = target: Nuclear receptor subfamily 4immunitygroup A member 1 (Homo sapiens) (UniProt P22736); test: Selectivity interaction (Reporter gene assay) EUB0001141a NR4A1
[16] = target: T3, Alpha trans-inducing protein (Human alphaherpesvirus 1); test: Selectivity interaction (Reporter gene assay) EUB0001141a UL48
[17] = target: Steroidogenic factor 1 (Homo sapiens) (UniProt Q13285); test: Selectivity interaction (Reporter gene assay) EUB0001141a NR5A1
[18] = target: T5, Peroxisome proliferator-activated receptor gamma (Homo sapiens) (UniProt P37231); test: Selectivity interaction (Reporter gene assay) EUB0001141a PPARG; settings: screened at recom. conc., Selectivity number of off-targets 1.0, Selectivity number of targets 19.0, Source Knowledge inhouse
T5 sequence (whole entry): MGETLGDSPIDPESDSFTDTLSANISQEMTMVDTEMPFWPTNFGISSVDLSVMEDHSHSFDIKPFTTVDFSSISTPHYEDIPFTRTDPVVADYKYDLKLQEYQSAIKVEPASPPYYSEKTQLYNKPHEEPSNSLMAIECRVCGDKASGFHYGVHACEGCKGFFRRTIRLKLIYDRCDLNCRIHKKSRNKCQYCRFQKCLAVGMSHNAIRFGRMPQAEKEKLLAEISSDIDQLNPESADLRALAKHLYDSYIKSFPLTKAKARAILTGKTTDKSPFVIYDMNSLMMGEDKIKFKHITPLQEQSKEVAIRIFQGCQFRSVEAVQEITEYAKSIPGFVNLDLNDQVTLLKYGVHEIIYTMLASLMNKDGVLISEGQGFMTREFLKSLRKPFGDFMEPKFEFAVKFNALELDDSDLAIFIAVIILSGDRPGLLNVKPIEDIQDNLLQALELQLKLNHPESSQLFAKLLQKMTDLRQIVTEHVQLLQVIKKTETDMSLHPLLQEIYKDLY

[19] = target: T1, Nuclear receptor subfamily 2 group C member 1 (Homo sapiens); test: Selectivity interaction (Reporter gene assay) EUB0001141a NR2C1
[20] = target: Nuclear receptor subfamily 2 group E member 1 (Homo sapiens) (UniProt Q9Y466); test: Selectivity interaction (Reporter gene assay) EUB0001141a NR2E1
[21] = target: T4, Retinoic acid receptor RXR-alpha (Homo sapiens); test: Selectivity interaction (Reporter gene assay) EUB0001141a RXRA; settings: reference bexarotene 1 uM, Selectivity number of off-targets 0.0, Selectivity number of targets 1.0, Source Knowledge inhouse
[22] = target: T2, Hepatocyte nuclear factor 4-alpha (Homo sapiens); test: Selectivity interaction (Reporter gene assay) EUB0001141a HNF4A
[23] = target: T4, Retinoic acid receptor RXR-alpha (Homo sapiens); test: Selectivity interaction (Reporter gene assay) EUB0001144a RXRA; settings: reference bexarotene 1 uM, Selectivity number of off-targets 0.0, Selectivity number of targets 1.0, Source Knowledge inhouse
[24] = target: T1, Nuclear receptor subfamily 2 group C member 1 (Homo sapiens); test: Selectivity interaction (Reporter gene assay) EUB0001144a NR2C1
[25] = target: T3, Alpha trans-inducing protein (Human alphaherpesvirus 1); test: Selectivity interaction (Reporter gene assay) EUB0001144a UL48
[26] = target: Nuclear receptor subfamily 4immunitygroup A member 1 (Homo sapiens) (UniProt P22736); test: Selectivity interaction (Reporter gene assay) EUB0001144a NR4A1
[27] = target: Steroidogenic factor 1 (Homo sapiens) (UniProt Q13285); test: Selectivity interaction (Reporter gene assay) EUB0001144a NR5A1
[28] = target: Nuclear receptor subfamily 2 group E member 1 (Homo sapiens) (UniProt Q9Y466); test: Selectivity interaction (Reporter gene assay) EUB0001144a NR2E1
[29] = target: T2, Hepatocyte nuclear factor 4-alpha (Homo sapiens); test: Selectivity interaction (Reporter gene assay) EUB0001144a HNF4A
[30] = target: SRSF protein kinase 1 (Homo sapiens) (UniProt Q96SB4); test: Selectivity interaction (Kinase panel (binding assay)) EUB0001089a SRPK1; settings: at 25 µM
SRSF protein kinase 1 (Homo sapiens), sequence (Q96SB4 whole entry): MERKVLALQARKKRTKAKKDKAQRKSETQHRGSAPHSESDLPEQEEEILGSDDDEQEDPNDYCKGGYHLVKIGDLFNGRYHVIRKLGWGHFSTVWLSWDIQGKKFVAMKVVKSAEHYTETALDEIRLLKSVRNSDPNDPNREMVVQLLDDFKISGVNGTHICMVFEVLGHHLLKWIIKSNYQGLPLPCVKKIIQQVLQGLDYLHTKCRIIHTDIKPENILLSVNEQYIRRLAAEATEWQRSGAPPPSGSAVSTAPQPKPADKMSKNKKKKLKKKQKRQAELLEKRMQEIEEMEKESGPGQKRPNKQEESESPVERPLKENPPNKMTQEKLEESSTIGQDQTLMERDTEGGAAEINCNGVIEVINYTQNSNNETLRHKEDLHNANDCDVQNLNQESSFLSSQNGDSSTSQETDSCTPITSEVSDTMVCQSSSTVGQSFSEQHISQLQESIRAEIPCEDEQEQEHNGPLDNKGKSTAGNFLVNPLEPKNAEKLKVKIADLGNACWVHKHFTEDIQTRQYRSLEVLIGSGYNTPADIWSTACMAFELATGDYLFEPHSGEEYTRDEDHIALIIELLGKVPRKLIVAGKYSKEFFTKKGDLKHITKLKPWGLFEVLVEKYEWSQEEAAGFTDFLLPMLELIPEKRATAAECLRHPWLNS

Fold activation [1]: 1.16
Fold activation [2]: 1
Remaining activity [3]: 0.821
Fold activation [4]: 1
Fold activation [5]: 1
P-value [6]: 0.0039
SMILES: CCCCCCCN(CCc1ccc(SC(C)(C)C(=O)O)cc1)C(=O)Nc1ccc(F)cc1F

SMILES: COc1ccc(OC(=O)N(CC(=O)O)Cc2ccc(OCCc3nc(-c4ccccc4)oc3C)cc2)cc1
Remaining activity [7]: 0.916
Remaining activity [8]: 0.747
Relative activation [9]: 0.862%
Fold activation [10]: 1.19
P-value [11]: 2.24e-06
Fold activation [12]: 6.61
Remaining activity [13]: 0.91
Remaining activity [14]: 0.799

Remaining activity [15]: 0.875
P-value [16]: 7.52e-07
Fold activation [17]: 1.12
Fold activation [18]: 2.82
Remaining activity [19]: 0.982
Fold activation [20]: 0.997
Relative activation [21]: 0.895%
Remaining activity [22]: 0.924
SMILES: Cc1nc(-c2ccc(C(F)(F)F)cc2)sc1C(=O)NCc1ccc(OC(C)(C)C(=O)O)cc1

Relative activation [23]: 0.813%
Fold activation [24]: 1.11
P-value [25]: 0.0008
Remaining activity [26]: 0.821
Fold activation [27]: 1.01
Fold activation [28]: 1.07
Fold activation [29]: 1.01
SMILES: CCO[C@@H](Cc1ccc(OCCc2ccc(OS(C)(=O)=O)cc2)cc1)C(=O)O

inhibition [30]: 60%
SMILES: CN1CC(C(=O)NCc2ccc3c(-c4cccc(C(N)=S)c4)cn(C4CCN(S(=O)(=O)C(F)(F)F)CC4)c3c2)C1
